Assay results published in patent publication US20180318200A1, “MOUTHWASH PRODUCTS AND METHODS” (COLGATE-PALMOLIVE COMPANY, priority 2015, published 2018).
Like-named read-outs stand apart in the source and are kept apart here.

How the values were obtained:
[1] = evaluation with weight adjustment; two 30 minute ex vivo treatments, 7 days in situ in retainer
Procedure: A treatment phase is completed ex vivo. Initial microhardness (MH) measurements are taken on sound, bovine enamel blocks (MHBaseline). The blocks are then etched with 30% phosphoric acid until there was a 40% change in the microhardness reading from Baseline. The microhardness is recorded as etched (Equation 1, MHEtched). Each etched enamel block is then immersed in a 2 ml solution of pre-treated 0.2% wheat hydrolysate (Gluadin W20)+500 ppm F prepared as described above, or a 2 ml solution of 500 ppm F, for 30 minutes. After 30 minutes, the blocks are washed twice with DI water at 500 RPM for 5 minutes, and then dried with a paper towel. This treatment cycle is repeated. The blocks are then secured within the designated location on a retainer for placement in the oral cavity of a subject. Six enamel blocks are placed in each retainer. Pre-punched holes on the retainer allow saliva fluid to contact etched enamel and to provide minerals for remineralization. […] The treated and control enamel blocks are randomized on the left or right side of the retainer. The retainers are then stored in a refrigerator until Day 1 of the study.
Twenty-six subjects are included in this randomized, blinded study. […] After 7 days, the enamel blocks are taken out of the appliance to take the final microhardness measurements (MHRemineralized) Demineralization and remineralization are calculated as follows: […]

[2] = Nanoindentation (nanohardness and Young's modulus) of acid-etched enamel blocks; parameters: species or system bovine; conditions: hydrolyzed wheat protein 0.5 weight %, fluoride 500 ppm; three cycles of 30 minutes treatment + 22 to 24 hours AS
Procedure: Enamel blocks are prepared as described in Example 1. Acid-etching is achieved by placing the enamel blocks in 1% citric acid solution (pH 3.8) for 15 minutes. The nanohardness and Young's modulus at 500 nm depth are measured prior to and after etching. Etched enamel blocks are incubated with a solution of hydrolyzed wheat protein (GLUADIN W20), at a concentration of 0.5 weight %, for 30 minutes (2 ml solution/block), followed by an incubation with AS solution as described in Example 1, for 22 to 24 hours. The hydrolyzed wheat protein and AS incubation steps are repeated two additional times, after which the enamel blocks are rinsed with DI water and air-dried. The nanohardness and Young's modulus of the treated enamel blocks are measured at 500 nm depth to assess the enamel repair effects of the hydrolyzed wheat protein. A solution of 500 ppm fluoride is used as a positive control for the experiment. The results are illustrated in Tables 2 and 3.

[3] = surface microhardness loss, 4 day cycling, four 10 minute treatments per day
Procedure: The selected enamel blocks are then the enamel blocks are pre-treated and subjected to 4 day cycling as described below, using DI water (negative control), 500 ppm F (positive control) and 0.2% wheat hydrolysate (Gluadin W20)+500 ppm F (test material) prepared as described in the previous example. The microhardness of the enamel blocks is measured again as final (MHfinal).
Each enamel block is sanitized in ethanol twice then washed in sterile DI water three times. Then each enamel block is pre-incubated in saliva supernatant at 4° C. overnight to form pellicle on the enamel surface.
Day Two to Five—Dentifrice treatment, demineralization and remineralization: Unstimulated whole saliva is collected from donors, who refrain from eating and oral hygiene in the morning. The saliva is pooled and centrifuged at 8000 rpm for 10 minutes. […] The sediment is washed once using sterile DI water and centrifuged at 8000 rpm for 10 minutes. The water supernatant is removed. The washed sediment is then diluted in the salivary supernatant TSB mixture to an OD (610 nm)=0.5. […]
Surface microhardness loss (SMHL, Demin %) as a percent was calculated as (1−(Microhardnessfinal/Microhardnesssound))*100.

[4] = Microhardness (Knoop) remineralization assay on etched enamel blocks; parameters: species or system bovine; conditions: hydrolysate filtrate with CPC 0.1% and fluoride (NaF) as stated in the label
Procedure: Enamel blocks are prepared as described in Example 1. […] Blocks with a Knoop hardness (KH) of at least 300 are selected. The blocks are etched by immersing in 30% phosphoric acid for 15 seconds. The KH on the left and right sides of the blocks are measured. Subsequently, the right side of the blocks are covered with tape prior to treating the blocks with 20 mg/ml solution of hydrolyzed wheat protein (Gluadin W20 from BASF) or hydrolyzed rice protein (GLUADIN R from BASF), each neutralized as described in example 1, for two terms of 30 minutes. (The tape on the right hand side of the blocks prevents exposure of this side to the protein solution and serves as an internal control). The blocks are washed twice with DI water @ 5 minutes, 500 PRM between the two treatments and after the second treatment. Subsequently, the tape is removed and the blocks are incubated in AS solution (0.2 mM MgCl2, 1 mM CaCl2.H2O, 20 mM HEPES buffer, 4 mM KH2PO4, 16 mM KCl, 4.5 mM NH4Cl, 300 ppm NaF, 0.05 wt. % NaN3, at pH 7 (adjusted with 1M NaOH)) for 7 days. After rinsing the enamel blocks with DI water and air-drying the rinsed blocks, microhardness is measured again. Surface microhardness regain (SMHL, Remin %) as a percent is calculated as […]

F [Fluoride, NaF]
% Remin [1]: 27.6%
Nanohardness Repair at 500 nm depth (%) [2]: 31.12%
Young's Modulus Repair at 500 nm depth (%) [2]: 48.50%
Demineralization percentage ([3]; 0.2% sucrose): 8.36%
Demineralization percentage ([3]; 0.4% sucrose): 19.99%
Remineralization % ([4]; listed as Buffer + 250 ppm fluoride): 11.73%
Remineralization % ([4]; listed as Buffer + 500 ppm fluoride): 15.87%
